Data as given in ChEMBL document CHEMBL1201862, “PubChem BioAssay data set” (2004).
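The compound was tested at five concentrations on cells cultured in 96-well plates, with a 48-hour exposure period. GI50 is the concentration that inhibits growth by half.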 The source made the active and inactive calls. Rule as the data show it: active = GI50 up to about 1.1 µM and inactive = higher.

Assays:
Assay in all cases: growth of human tumour cells (NCI), 48 h
SNB-19 = system: SNB-19
HOP-62 = system: HOP-62
SF-295 = system: SF-295
OVCAR-4 = system: OVCAR-4
CAKI-1 = system: CAKI-1
ACHN = system: ACHN
CCRF-CEM = system: CCRF-CEM
K562 = system: K562
SK-MEL-2 = system: SK-MEL-2
UO-31 = system: UO-31
SK-MEL-5 = system: SK-MEL-5
NCI-H460 = system: NCI-H460
SK-MEL-28 = system: SK-MEL-28
Malme-3M = system: Malme-3M
NCI-H522 = system: NCI-H522
MOLT-4 = system: MOLT-4
LOX IMVI = system: LOX IMVI
HOP-92 = system: HOP-92
OVCAR-5 = system: OVCAR-5
COLO 205 = system: COLO 205

Row | Structure (SMILES) | GI50 (SNB-19) | GI50 (HOP-62) | GI50 (SF-295) | GI50 (OVCAR-4) | GI50 (CAKI-1) | GI50 (ACHN) | GI50 (CCRF-CEM) | GI50 (K562) | GI50 (SK-MEL-2) | GI50 (UO-31) | GI50 (SK-MEL-5) | GI50 (NCI-H460) | GI50 (SK-MEL-28) | GI50 (Malme-3M) | GI50 (NCI-H522) | GI50 (MOLT-4) | GI50 (LOX IMVI) | GI50 (HOP-92) | GI50 (OVCAR-5) | GI50 (COLO 205)
1 | c1ccc2c(c1)c1ccccc1n2Cn1c2ccccc2c2ccccc21 | > 100 µM (inactive) | > 100 µM (inactive) | > 100 µM (inactive) | > 100 µM (inactive) | > 100 µM (inactive) | > 100 µM (inactive) | > 100 µM (inactive) | > 100 µM (inactive) | > 100 µM (inactive) | > 100 µM (inactive) | > 100 µM (inactive) | > 100 µM (inactive) | > 100 µM (inactive) | > 100 µM (inactive) | > 100 µM (inactive) | > 100 µM (inactive) | > 100 µM (inactive) | > 100 µM (inactive) | > 100 µM (inactive) | 
2 | CCOC(=O)NC(=O)c1cn(C2CCCCC2)c(=O)n(C)c1=O | > 100 µM (inactive) | > 100 µM (inactive) | > 100 µM (inactive) | > 100 µM (inactive) | > 100 µM (inactive) | > 100 µM (inactive) | > 100 µM (inactive) | > 100 µM (inactive) | > 100 µM (inactive) | > 100 µM (inactive) | > 100 µM (inactive) | > 100 µM (inactive) | > 100 µM (inactive) | > 100 µM (inactive) | > 100 µM (inactive) | > 100 µM (inactive) | > 100 µM (inactive) | > 100 µM (inactive) | > 100 µM (inactive) | > 100 µM (inactive)
3 | Cn1c(=O)nc2n(-c3ccc(Cl)c(C(F)(F)F)c3)c3ccccc3nc-2c1=O | 21.9 µM (inactive) | 57.9 µM (inactive) | 44.2 µM (inactive) | 22.2 µM (inactive) | 51.4 µM (inactive) | 27.7 µM (inactive) | 30.8 µM (inactive) | 35.5 µM (inactive) | 34.7 µM (inactive) | > 77.4 µM (inactive) | 13.5 µM (inactive) | 30.2 µM (inactive) | 65 µM (inactive) | 15 µM (inactive) | 25.1 µM (inactive) | 36.7 µM (inactive) | 35 µM (inactive) | 40.8 µM (inactive) | 74.3 µM (inactive) | 17.7 µM (inactive)
4 | CCOC(=O)C1C(O)CC2c3ccccc3-c3ccccc3C21 (centres undefined) | 33.5 µM (inactive) | 31.2 µM (inactive) | 43.7 µM (inactive) | > 100 µM (inactive) | > 100 µM (inactive) | 27.3 µM (inactive) | 8.85 µM (inactive) | 96.2 µM (inactive) | > 100 µM (inactive) | > 100 µM (inactive) | 50.5 µM (inactive) | > 100 µM (inactive) | > 100 µM (inactive) | > 100 µM (inactive) | 35.4 µM (inactive) | > 100 µM (inactive) | > 100 µM (inactive) | 20.1 µM (inactive) | > 100 µM (inactive) | > 100 µM (inactive)
5 | Cc1c(-c2cc3n(n2)C(c2cccs2)C(C#N)=C(c2ccccc2)N3)c(=O)n(-c2ccccc2)n1C (centres undefined) | > 100 µM (inactive) | > 100 µM (inactive) | > 74.3 µM (inactive) | > 87.9 µM (inactive) | 11.1 µM (inactive) |  | > 95.1 µM (inactive) | > 100 µM (inactive) | 51.6 µM (inactive) | 77.4 µM (inactive) | 28.8 µM (inactive) | 76.9 µM (inactive) | > 100 µM (inactive) | > 100 µM (inactive) | 63.2 µM (inactive) | > 72.6 µM (inactive) | 38.5 µM (inactive) | 36 µM (inactive) | > 100 µM (inactive) | > 89.3 µM (inactive)
6 | C=C[C@H]1CN2CCc3c([nH]c4cc(O)ccc34)[C@@H]2C[C@@H]1C[C@H]1c2[nH]c3ccccc3c2CCN1C | 6.67 µM (inactive) | 4.45 µM (inactive) | 4.53 µM (inactive) | 7.03 µM (inactive) | 6.04 µM (inactive) | 5.28 µM (inactive) | 1.69 µM (inactive) | 2.78 µM (inactive) | 3.21 µM (inactive) | 2.09 µM (inactive) | 1.73 µM (inactive) | 2.07 µM (inactive) | 1.78 µM (inactive) | 13.8 µM (inactive) | 2.99 µM (inactive) | 3.57 µM (inactive) | 4.41 µM (inactive) | 3.39 µM (inactive) | 17 µM (inactive) | 1.77 µM (inactive)
7 | C/C(=N\NC(=S)N(C)C)c1nc2cccnc2[nH]1 | 1.02 µM (active) | 0.54 µM (active) |  | 0.499 µM (active) | 0.501 µM (active) | 0.618 µM (active) | 0.379 µM (active) | 2.16 µM (inactive) | 0.583 µM (active) | 0.348 µM (active) | 0.387 µM (active) | 0.478 µM (active) | 1.03 µM (active) | 1.38 µM (inactive) | 1.53 µM (inactive) | 0.406 µM (active) | 0.673 µM (active) | 0.275 µM (active) | 0.504 µM (active) | 0.325 µM (active)
8 | O=S(=O)(/N=C(\NO)Nc1ccc(Cl)cc1)c1ccc(-c2ccccn2)s1 | > 100 µM (inactive) | 52.1 µM (inactive) | 52.1 µM (inactive) | 16.4 µM (inactive) | 6.25 µM (inactive) | 35.6 µM (inactive) | 42.8 µM (inactive) | 50.2 µM (inactive) | 46 µM (inactive) | 80.2 µM (inactive) | 31.4 µM (inactive) | 87.3 µM (inactive) | 69.2 µM (inactive) | 19.6 µM (inactive) | 11.5 µM (inactive) | 40.1 µM (inactive) | 57.8 µM (inactive) | 27.4 µM (inactive) | 74.1 µM (inactive) | 45.1 µM (inactive)
9 | CCC1(C)NN=c2s/c(=C/c3ccc(OC)cc3)c(=O)n2N1 (centres undefined) | > 100 µM (inactive) | > 100 µM (inactive) | > 100 µM (inactive) | 35.7 µM (inactive) | > 100 µM (inactive) | > 100 µM (inactive) | > 100 µM (inactive) | > 100 µM (inactive) | > 100 µM (inactive) | > 100 µM (inactive) | > 100 µM (inactive) | > 100 µM (inactive) | > 100 µM (inactive) | > 100 µM (inactive) | > 100 µM (inactive) | > 100 µM (inactive) | > 100 µM (inactive) | 17.6 µM (inactive) | > 100 µM (inactive) | > 100 µM (inactive)
10 | C=CNC(=S)n1nc(-c2ccccc2NC(=O)C(F)(F)F)c(=O)n(C(=S)NC=C)c1=S | 28.6 µM (inactive) | 29.6 µM (inactive) | 19.2 µM (inactive) | 3.58 µM (inactive) | 23.1 µM (inactive) | 24.4 µM (inactive) | 24.9 µM (inactive) | 18.1 µM (inactive) | 73.3 µM (inactive) | 13.9 µM (inactive) | 13.3 µM (inactive) | 15.1 µM (inactive) | > 100 µM (inactive) | 56.2 µM (inactive) | 11.2 µM (inactive) | 15.4 µM (inactive) | 31.8 µM (inactive) | 10.5 µM (inactive) | 26.7 µM (inactive) | > 10 µM (inactive)
11 | Cc1c2cc[n+](C)cc2c(COC2OC(CO)C(O)C2O)c2c3ccccc3n(C)c12 (centres undefined) | 14.5 µM (inactive) | 58.6 µM (inactive) | 57 µM (inactive) | > 100 µM (inactive) | > 100 µM (inactive) |  | > 87.9 µM (inactive) | > 100 µM (inactive) | > 100 µM (inactive) | > 100 µM (inactive) | 61.8 µM (inactive) | 19.2 µM (inactive) | 53 µM (inactive) | 62.1 µM (inactive) | 63.1 µM (inactive) | 45.5 µM (inactive) | > 100 µM (inactive) | 77.6 µM (inactive) | > 100 µM (inactive) | > 100 µM (inactive)
12 | CC1=NN(C(=O)c2ccccc2)C(=O)C1/N=N/c1ccccc1C(=O)O (centres undefined) | 5.75 µM (inactive) | 6.15 µM (inactive) | 4.1 µM (inactive) | 5.62 µM (inactive) | 6.53 µM (inactive) |  | 3.81 µM (inactive) | 2.54 µM (inactive) | 6.21 µM (inactive) | 3.75 µM (inactive) | 34 µM (inactive) | 3.67 µM (inactive) | 89.1 µM (inactive) | 10.9 µM (inactive) | 8.05 µM (inactive) | 4.09 µM (inactive) | 11.5 µM (inactive) | 4.11 µM (inactive) | > 73.1 µM (inactive) | > 72.6 µM (inactive)
13 | COc1c(C(=O)/C(=N/Nc2ccccc2)C(C)=O)c(O)c(OC)c2occc12 | 36.1 µM (inactive) | 97.5 µM (inactive) | 48.9 µM (inactive) | > 100 µM (inactive) | > 100 µM (inactive) | 50.4 µM (inactive) | 74.1 µM (inactive) | 53.5 µM (inactive) | 67 µM (inactive) | 17.2 µM (inactive) | 13.7 µM (inactive) | 38.8 µM (inactive) | > 100 µM (inactive) | 24.5 µM (inactive) | 41.8 µM (inactive) | 48.3 µM (inactive) | 45.9 µM (inactive) | 9.38 µM (inactive) | > 100 µM (inactive) | 32.2 µM (inactive)
14 | CNC(=O)OCc1nc(SC)n(C)c1CO | > 100 µM (inactive) | > 100 µM (inactive) | > 100 µM (inactive) | > 100 µM (inactive) | > 100 µM (inactive) |  | > 100 µM (inactive) | > 100 µM (inactive) | > 46.9 µM (inactive) | > 100 µM (inactive) | > 100 µM (inactive) | > 100 µM (inactive) | > 100 µM (inactive) | 1.68 µM (inactive) | > 100 µM (inactive) | > 100 µM (inactive) | > 100 µM (inactive) | > 100 µM (inactive) | > 100 µM (inactive) | > 100 µM (inactive)
